Read-outs that look alike come from different tables or passages of the source.
Tests used:
[1] = molecular target: T1, (Homo sapiens, UniProt P08069); test: IGF1R kinase assay (LCCA), IGF 0P; type: biochemical
T1 construct: human IGF1R kinase domain residues M954-C1367; made in house; host or cells: baculovirus expression (insect cells)
Summary of the method: (§1)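 Baculovirus-expressed human IGF1R kinase domain (M954-C1367), 4 nM, with 3 μM ATP and 4 μM poly EY in Tris-HCl pH 7.5 buffer containing MgCl2 and MnCl2, 2 h at ambient temperature. Remaining ATP read by luciferase chemiluminescence; IC50 from 10-point dose-response fitted to a four-parameter equation.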

[2] = molecular target: T2, IGF 3P (Homo sapiens, UniProt P08069); test: IGF1R kinase assay (LCCA), IGF 3P; type: biochemical
T2 construct: human IGF1R kinase domain residues M954-C1367; made in house; host or cells: baculovirus expression (insect cells)
Summary of the method: as §1

T1 sequence (P08069 954-1367): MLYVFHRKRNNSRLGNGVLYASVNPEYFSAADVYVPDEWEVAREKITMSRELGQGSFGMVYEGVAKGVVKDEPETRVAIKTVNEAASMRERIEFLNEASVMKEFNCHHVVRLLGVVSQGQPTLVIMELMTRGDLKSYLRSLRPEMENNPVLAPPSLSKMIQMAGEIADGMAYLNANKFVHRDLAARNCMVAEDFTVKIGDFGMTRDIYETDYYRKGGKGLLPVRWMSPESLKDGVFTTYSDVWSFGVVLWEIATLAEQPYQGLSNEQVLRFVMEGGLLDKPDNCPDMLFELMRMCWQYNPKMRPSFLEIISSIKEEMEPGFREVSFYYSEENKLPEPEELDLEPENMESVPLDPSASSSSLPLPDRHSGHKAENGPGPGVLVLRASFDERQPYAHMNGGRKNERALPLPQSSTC
T2 sequence (P08069 954-1367): as above

Compound	IC50 ([1]; IGF1R kinase LCCA assay)	IC50 ([2]; IGF1R kinase LCCA assay)	IC50 [1]	IC50 [2]
Brc1cnc(NCCC(c2ccccc2)c2ccccc2)nc1Nc1cc(C2CC2)[nH]n1 [Example 328]	> 5000 nM	> 5000 nM	–	–
O=C(Nc1ccc(N2CCOCC2)cc1)c1nc(Nc2ccccc2Cl)nc(Nc2cc(C3CC3)n[nH]2)c1[N+](=O)[O-] [Example 278]	> 5000 nM	> 5000 nM	–	–
Brc1cnc(NCCc2cccs2)nc1Nc1cc(C2CC2)n[nH]1 [Example 170]	500 to 5000 nM	500 to 5000 nM	–	–
c1cc(Nc2cc(C3CCCC3)n[nH]2)nc(Nc2ccc(N3CCOCC3)cc2)n1 [Example 151]	500 to 5000 nM	50 to 500 nM	–	–
O=C(Nc1ncc(Br)c(Nc2cc(C3CC3)[nH]n2)n1)c1ccccc1Cl [Example 279]	> 5000 nM	> 5000 nM	–	–
O=C(Nc1ccccc1)c1nc(Nc2ccccc2Cl)nc(Nc2cc(C3CC3)n[nH]2)c1[N+](=O)[O-] [Example 276]	500 to 5000 nM	> 5000 nM	–	–
Brc1cnc(NCC2CCNCC2)nc1Nc1cc(C2CC2)n[nH]1 [Example 198]	> 5000 nM	500 to 5000 nM	–	–
CN(C)CCOc1cc(Nc2cc(C3CC3)[nH]n2)nc(NCc2cc(-c3ccncn3)no2)n1 [Example 638, N^4-(5-cyclopropyl-1H-pyrazol-3-yl)-6-{[2-(dimethylamino)ethyl]oxy}-N^2-[(3-pyrimidin-4-ylisoxazol-5-yl)methyl]pyrimidine-2,4-diamine]	–	–	50 to 500 nM	< 50 nM
CC(C)c1cc(CNc2nc(NCCN3CCN(C)CC3)cc(Nc3cc(C4CC4)[nH]n3)n2)on1 [Example 559]	500 to 5000 nM	< 50 nM	–	–
CCN(CC)CCNC(=O)CCc1ccc(Nc2ncc(Br)c(Nc3ccccc3)n2)cc1 [Example 541]	50 to 500 nM	< 50 nM	–	–
Cc1cc(Nc2cc(C3CC3)n[nH]2)nc(Nc2ccc3c(c2)CN(C(=O)OC(C)(C)C)CC3)n1 [Example 565]	500 to 5000 nM	500 to 5000 nM	–	–
Cc1cnc(Nc2ccc(N(C)C)cc2)nc1Nc1cc(C2CC2)n[nH]1 [Example 175]	500 to 5000 nM	500 to 5000 nM	–	–
Cc1cc(Nc2cc(OCCN3CCOCC3)nc(NCc3cc(-c4ccccc4)no3)n2)[nH]n1 [Example 619, N^4-(3-methyl-1H-pyrazol-5-yl)-6-[(2-morpholin-4-ylethyl)oxy]-N^2-[(3-phenylisoxazol-5-yl)methy]pyrimidine-2,4-diamine]	–	–	50 to 500 nM	50 to 500 nM
Nc1ccc(Nc2nc(Nc3cc(C4CC4)n[nH]3)ncc2Br)cc1 [Example 327]	> 5000 nM	> 5000 nM	–	–
Cc1cc(Nc2nc(NCc3cc(-c4ccccc4)no3)ncc2Br)no1 [Example 296]	> 5000 nM	> 5000 nM	–	–
CC(C)c1cc(CNc2nc(Nc3cc(C(C)C)[nH]n3)cc(OCCN3CCOCC3)n2)on1 [Example 587, N-{[3-(1-methylethyl)isoxazol-5-yl]methyl}-N^4-[5-(1-methylethyl)-1H-pyrazol-3-yl]-6-[(2-morpholin-4-ylethyl)oxy]pyrimidine-2,4-diamine]	–	–	500 to 5000 nM	< 50 nM
Fc1ccc(-c2cc(CNc3nc(Nc4cc(C5CC5)n[nH]4)cc(N4CCOCC4)n3)on2)cc1 [Example 604, N^4-(3-cyclopropyl-1H-pyrazol-5-yl)-N^2-{[3-(4-fluorophenyl)isoxazol-5-yl]methyl}-6-morpholin-4-ylpyrimidine-2,4-diamine]	–	–	50 to 500 nM	< 50 nM
CCN(CC)CCCNc1cc(Nc2cc(C(C)C)[nH]n2)nc(NCc2cc(-c3ccccc3)no2)n1 [Example 495]	50 to 500 nM	< 50 nM	–	–
Fc1ccc(-c2cc(CNc3nc(Nc4cc(C5CC5)n[nH]4)cc(OCCN4CCOCC4)n3)on2)cc1 [Example 606, N^4-(3-cyclopropyl-1H-pyrazol-5-yl)-N^2-{[3-(4-fluorophenyl)isoxazol-5-yl]methyl}-6-[(2-morpholin-4-ylethyl)oxy]pyrimidine-2,4-diamine]	–	–	50 to 500 nM	< 50 nM
Cc1cc(Nc2cc(C3CC3)[nH]n2)nc(NC(c2ccccc2)c2nc(-c3ccccc3)co2)n1 (stereo not shown) [Example 572]	500 to 5000 nM	500 to 5000 nM	–	–
Clc1cccc(-c2ncc(CNc3ncc(Br)c(Nc4cc(C5CC5)[nH]n4)n3)s2)c1 [Example 290]	> 5000 nM	> 5000 nM	–	–
O=C(NCCN1CCCC1)c1cc(Nc2cc(C3CC3)[nH]n2)nc(NCc2cc(-c3ccccc3)no2)n1 [Example 521]	50 to 500 nM	< 50 nM	–	–

Compound	IC50 ([1]; IGF1R kinase LCCA assay)	IC50 ([2]; IGF1R kinase LCCA assay)	IC50 [1]	IC50 [2]
c1ccc(-c2cc(CNc3nc(NCCN4CCCCC4)cc(Nc4cc(C5CC5)[nH]n4)n3)on2)cc1 [Example 516]	50 to 500 nM	< 50 nM	–	–
c1ncc(-c2cc(CNc3nc(Nc4cc(C5CC5)n[nH]4)cc(N4CCOCC4)n3)on2)cn1 [Example 643, N^4-(3-cyclopropyl-1H-pyrazol-5-yl)-6-morpholin-4-yl-N^2-[(3-pyrimidin-5-ylisoxazol-5-yl)methyl]pyrimidine-2,4-diamine]	–	–	50 to 500 nM	50 to 500 nM
Cc1cc(CNc2nc(Nc3cc(C4CC4)[nH]n3)cc(OCCN3CCCC3)n2)on1 [Example 647, N^4-(5-cyclopropyl-1H-pyrazol-3-yl)-N^2[(3-methylisoxazol-5-yl)methyl]-6-[(2-pyrrolidin-1-ylethyl)oxy]pyrimidine-2,4-diamine]	–	–	50 to 500 nM	< 50 nM
CCN(CC)CCCNc1nc(Nc2ccccc2Cl)nc(Nc2cc(C3CC3)n[nH]2)c1Cl [Example 66]	50 to 500 nM	< 50 nM	–	–
CC(C)(C)OC(=O)NCc1ccc(Nc2ncc(Br)c(Nc3cc(C4CC4)[nH]n3)n2)cc1 [Example 92]	50 to 500 nM	50 to 500 nM	–	–
Brc1cnc(NCc2cc(-c3ccccc3)no2)nc1Nc1cc(C2CCCC2)n[nH]1 [Example 189]	50 to 500 nM	500 to 5000 nM	–	–
CCc1cc(CNc2nc(Nc3cc(C4CC4)n[nH]3)cc(OCCN(C)C)n2)on1 [Example 657, N^4-(3-cyclopropyl-1H-pyrazol-5-yl)-6-{[2-(dimethylamino)ethyl]oxy}-N^2-[(3-ethylisoxazol-5-yl)methyl]pyrimidine-2,4-diamine]	–	–	50 to 500 nM	< 50 nM
COC(=O)C1CCc2cc(Nc3nc(C)cc(Nc4cc(C5CC5)n[nH]4)n3)ccc2N1 (stereo not shown) [Example 537]	500 to 5000 nM	500 to 5000 nM	–	–
Brc1cnc(Nc2ccc(OCc3ccccc3)cc2)nc1Nc1cc(C2CC2)n[nH]1 [Example 320]	> 5000 nM	> 5000 nM	–	–
CN(C)c1cc(Nc2cc(C3CC3)[nH]n2)nc(NCc2cc(-c3ccccc3)no2)n1 [Example 110]	50 to 500 nM	50 to 500 nM	–	–
Cc1cc(C)cc(Nc2ncc(Br)c(Nc3cc(C4CC4)n[nH]3)n2)c1 [Example 134]	500 to 5000 nM	50 to 500 nM	–	–
FC(F)(F)Oc1ccccc1Nc1ncc(Br)c(Nc2cc(C3CC3)n[nH]2)n1 [Example 84]	50 to 500 nM	50 to 500 nM	–	–
Brc1cnc(Nc2ccc(N3CCOCC3)cc2)nc1Nc1cc(-c2ccco2)[nH]n1 [Example 80]	50 to 500 nM	50 to 500 nM	–	–
Brc1cnc(NCC2CCCO2)nc1Nc1cc(C2CC2)n[nH]1 (stereo not shown) [Example 201]	> 5000 nM	500 to 5000 nM	–	–
CC(C)c1cc(Nc2cc(OCCN3CCOCC3)nc(NCc3cc(-c4ccccc4)no3)n2)n[nH]1 [Example 588, N^4-[5-(1-methylethyl)-1H-pyrazol-3-yl]-6-[(2-morpholin-4-ylethyl)oxy]-N^2-[(3-phenylisoxazol-5-yl)methyl]pyrimidine-2,4-diamine]	–	–	50 to 500 nM	< 50 nM
Cc1cc(Nc2cc(C3CC3)[nH]n2)nc(NCc2ccco2)n1 [Example 563]	500 to 5000 nM	500 to 5000 nM	–	–
Cc1cc(Nc2cc(C3CC3)n[nH]2)nc(Nc2ccc3cc(C(=O)NCCN4CCCC4)ccc3c2)n1 [Example 49]	50 to 500 nM	< 50 nM	–	–
FC(F)(F)c1cc(Br)cc(Nc2ncc(Br)c(Nc3cc(C4CC4)n[nH]3)n2)c1 [Example 305]	> 5000 nM	> 5000 nM	–	–
CCN1CCN(c2cc(Nc3cc(C4CC4)n[nH]3)nc(NCc3cc(C(C)C)no3)n2)CC1 [Example 661, N^4-(3-cyclopropyl-1H-pyrazol-5-yl)-6-(4-ethylpiperazin-1-yl)-N^2-{[3-(1-methylethyl)isoxazol-5-yl]methyl}pyrimidine-2,4-diamine]	–	–	50 to 500 nM	< 50 nM
Clc1ccc(-c2cc(CNc3ncc(Br)c(Nc4cc(C5CC5)[nH]n4)n3)on2)cc1 [Example 275]	500 to 5000 nM	> 5000 nM	–	–
CN(C)c1ccc(CNc2ncc(Br)c(Nc3cc(C4CC4)n[nH]3)n2)cc1 [Example 193]	> 5000 nM	500 to 5000 nM	–	–
CC(C)c1cc(Nc2nc(NCc3cc(-c4ccccc4)no3)ncc2Br)[nH]n1 [Example 10]	50 to 500 nM	50 to 500 nM	–	–

From US8211929B2, “Pyrimidine derivatives as kinase modulators and method of use” (Exelixis, Inc., priority 2004, dated 2012)
